In ChEMBL document CHEMBL1201862, “PubChem BioAssay data set” (2004):
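Five compound concentrations were applied to cells in 96-well plates for 48 hours; endpoints were derived by simple linear interpolation of the resulting dose-response curve. GI50 marks 50% less growth.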 Calls of active or inactive are those of the source. No stated cut-off is given here; in the data, active = GI50 up to about 1.1 µM and inactive = higher.

Key:
Assay in all cases: NCI tumour cell line growth inhibition, 48 h
OVCAR-3 = test system: OVCAR-3
HCC 2998 = test system: HCC 2998
ACHN = test system: ACHN
A498 = test system: A498
SF-295 = test system: SF-295
SF-268 = test system: SF-268
NCI-H23 = test system: NCI-H23
EKVX = test system: EKVX
HL-60 = test system: HL-60
HOP-62 = test system: HOP-62
IGROV-1 = test system: IGROV-1
MOLT-4 = test system: MOLT-4
786-0 = test system: 786-0
UO-31 = test system: UO-31
COLO 205 = test system: COLO 205
CAKI-1 = test system: CAKI-1
HCT-15 = test system: HCT-15

Structure (SMILES) | GI50 (OVCAR-3) | GI50 (HCC 2998) | GI50 (ACHN) | GI50 (A498) | GI50 (SF-295) | GI50 (SF-268) | GI50 (NCI-H23) | GI50 (EKVX) | GI50 (HL-60) | GI50 (HOP-62) | GI50 (IGROV-1) | GI50 (MOLT-4) | GI50 (786-0) | GI50 (UO-31) | GI50 (COLO 205) | GI50 (CAKI-1) | GI50 (HCT-15)
CCN(CC)CC(C(=O)Nc1c(C)cccc1C)/C(C)=N/NC(N)=S (centres undefined) | > 100 µM (inactive) | > 100 µM (inactive) | > 100 µM (inactive) | > 100 µM (inactive) | > 100 µM (inactive) | > 100 µM (inactive) | > 100 µM (inactive) | > 100 µM (inactive) | > 100 µM (inactive) | > 100 µM (inactive) | > 100 µM (inactive) | > 100 µM (inactive) | > 100 µM (inactive) | > 100 µM (inactive) | > 100 µM (inactive) | – | –
COc1cc(/C=C\c2ccc(OC(C)=O)cc2)cc(OC)c1OC | 3.29 µM (inactive) | 8.13 µM (inactive) | 6.46 µM (inactive) | 22.4 µM (inactive) | – | 9.59 µM (inactive) | 0.352 µM (active) | 10 µM (inactive) | – | 5.32 µM (inactive) | 7.59 µM (inactive) | 3.78 µM (inactive) | 3.56 µM (inactive) | 4.08 µM (inactive) | 13.3 µM (inactive) | 29.1 µM (inactive) | –
Cc1nc2c(n1CC(C)C)C(=O)c1ccccc1C2=O | 25.4 µM (inactive) | 71.4 µM (inactive) | 32.1 µM (inactive) | – | 39.2 µM (inactive) | 42.8 µM (inactive) | 18 µM (inactive) | 38 µM (inactive) | 23 µM (inactive) | 42.1 µM (inactive) | 32.6 µM (inactive) | 38.6 µM (inactive) | 55.1 µM (inactive) | 26.5 µM (inactive) | 36 µM (inactive) | – | 37.5 µM
COC(=O)C(CCCC1(c2ccccc2)OCCO1)C(C)=O (centres undefined) | > 100 µM (inactive) | > 100 µM (inactive) | 38.1 µM (inactive) | > 100 µM (inactive) | > 100 µM (inactive) | > 100 µM (inactive) | > 100 µM (inactive) | > 100 µM (inactive) | > 100 µM (inactive) | > 100 µM (inactive) | > 100 µM (inactive) | > 100 µM (inactive) | > 100 µM (inactive) | > 100 µM (inactive) | > 100 µM (inactive) | – | > 100 µM
CCOC(=O)NC(=O)c1cn(CCN2CCN(C(=O)NCCCCCCNC(=O)N3CCN(CCn4cc(C(=O)NC(=O)OCC)c(=O)[nH]c4=O)CC3)CC2)c(=O)[nH]c1=O | > 100 µM (inactive) | > 100 µM (inactive) | > 100 µM (inactive) | > 100 µM (inactive) | > 100 µM (inactive) | > 100 µM (inactive) | > 100 µM (inactive) | > 100 µM (inactive) | > 100 µM (inactive) | > 100 µM (inactive) | > 100 µM (inactive) | – | > 100 µM (inactive) | > 100 µM (inactive) | > 100 µM (inactive) | – | > 100 µM
CC1=NN=C(NCCN(C)C)C/C1=C/c1ccccc1Cl | > 100 µM (inactive) | > 100 µM (inactive) | > 100 µM (inactive) | > 100 µM (inactive) | > 100 µM (inactive) | > 100 µM (inactive) | > 100 µM (inactive) | > 100 µM (inactive) | – | > 100 µM (inactive) | > 100 µM (inactive) | – | > 100 µM (inactive) | > 100 µM (inactive) | > 100 µM (inactive) | 73.5 µM (inactive) | > 100 µM
COC(=O)C(CC(C)=O)CS(=O)(=O)CC(=O)C(=O)Nc1cccc([N+](=O)[O-])c1 (centres undefined) | > 100 µM (inactive) | > 100 µM (inactive) | > 100 µM (inactive) | > 100 µM (inactive) | – | > 100 µM (inactive) | > 100 µM (inactive) | > 100 µM (inactive) | – | > 100 µM (inactive) | > 100 µM (inactive) | – | > 100 µM (inactive) | > 100 µM (inactive) | > 100 µM (inactive) | > 100 µM (inactive) | > 100 µM
CCOC(=O)c1ncn2c1[nH]c(=O)c1ccccc12 | > 100 µM (inactive) | – | > 100 µM (inactive) | – | > 100 µM (inactive) | > 100 µM (inactive) | > 100 µM (inactive) | > 100 µM (inactive) | > 10 µM (inactive) | – | > 100 µM (inactive) | > 100 µM (inactive) | > 100 µM (inactive) | > 100 µM (inactive) | > 100 µM (inactive) | – | > 100 µM
CC1=C(C(=O)Nc2ccccc2)C(c2ccc([N+](=O)[O-])cc2)C(C(=O)Nc2ccccc2)=C(C)N1 | 21.7 µM (inactive) | 20.2 µM (inactive) | 37 µM (inactive) | 26.2 µM (inactive) | 22.4 µM (inactive) | 22.6 µM (inactive) | 17 µM (inactive) | 21.5 µM (inactive) | 13.1 µM (inactive) | 39.1 µM (inactive) | 28.6 µM (inactive) | 7.05 µM (inactive) | 19.8 µM (inactive) | 22.4 µM (inactive) | – | – | 17.6 µM
CC(C(=O)n1c2ccccc2c2ccccc21)N(c1ccccc1)c1ccccc1 (centres undefined) | 17.8 µM (inactive) | 16.3 µM (inactive) | 16.6 µM (inactive) | – | 19.4 µM (inactive) | 19.3 µM (inactive) | 18.9 µM (inactive) | 19.4 µM (inactive) | 4.46 µM (inactive) | 16.3 µM (inactive) | 18.3 µM (inactive) | 11 µM (inactive) | 16.6 µM (inactive) | 20.6 µM (inactive) | 17.4 µM (inactive) | 14.5 µM (inactive) | 17 µM
C=CCOC(C)n1c(C)cc(=O)n(C(C)OCC=C)c1=O (centres undefined) | – | > 100 µM (inactive) | > 100 µM (inactive) | > 100 µM (inactive) | > 100 µM (inactive) | > 100 µM (inactive) | > 100 µM (inactive) | > 100 µM (inactive) | > 100 µM (inactive) | > 100 µM (inactive) | > 100 µM (inactive) | > 100 µM (inactive) | > 100 µM (inactive) | > 100 µM (inactive) | > 100 µM (inactive) | – | > 100 µM
O=C1OC(CC(=O)c2ccccc2Cl)C(Cl)=C1Cl (centres undefined) | > 100 µM (inactive) | > 100 µM (inactive) | > 100 µM (inactive) | – | > 100 µM (inactive) | > 100 µM (inactive) | > 100 µM (inactive) | > 100 µM (inactive) | > 100 µM (inactive) | > 100 µM (inactive) | > 100 µM (inactive) | > 100 µM (inactive) | > 100 µM (inactive) | > 100 µM (inactive) | > 100 µM (inactive) | > 100 µM (inactive) | > 100 µM
COc1ccc(C(=O)C(c2ccc(OC)cc2)C2(O)C(=O)Nc3c(Cl)cc(Cl)cc32)cc1 (centres undefined) | 22.8 µM (inactive) | > 10 µM (inactive) | 22.8 µM (inactive) | – | 19.3 µM (inactive) | 33.8 µM (inactive) | 19.5 µM (inactive) | 18.7 µM (inactive) | 4.68 µM (inactive) | 23.8 µM (inactive) | – | 9.35 µM (inactive) | 14.3 µM (inactive) | 27.7 µM (inactive) | 29.4 µM (inactive) | 19.1 µM (inactive) | 21.5 µM
